Results published in patent publication US20060263351A1, “Methods and compositions for protection against thrombolysis associated reperfusion injury” (The General Hospital Corporation, priority 2002, published 2006).
Entries after “also recorded” stand apart in the source; their conditions may differ.

Experiments:
MMP-9 [1] = experiment: Gelatin zymography of brain after mechanical (filament) transient focal ischemia, MMP-9; type: in vivo, rat; settings: 2 hr transient filament occlusion, reperfused 3, 6, or 24 hrs; tPA 10 mg/kg at onset of reperfusion; vs saline
Procedure: Similar findings were obtained in mechanical (filament) models of focal ischemia. Rats were subjected to transient occlusions for 2 hrs, then reperfused for 3, 6, or 24 hrs. Saline controls were compared with rats treated with 10 mg/kg of tPA at the onset of reperfusion.

[2] = tested on: primary co-cultures of neurons/astrocytes from rat brain; experiment: Cytotoxicity assay of LDH release, neuron/astrocyte co-cultures; type: cell-based; settings: different doses of tPA
Procedure: (§1) Different doses of tPA were added to primary co-cultures of neurons/astrocytes from rat brain, or microvessel endothelial cells from human brain. Cytotoxicity assays of LDH release confirmed that these doses were not toxic, consistent with our previous published experience using tPA in vitro (Wang X, et al., Neurosci Lett 274:79-82, 1999). In addition, these doses are within range of plasma concentrations in patients treated with intravenous tPA (NINDS rt-PA Stroke Study Group, New Engl J Med 333:1581-1587, 1995).

MMP-2 [3] = experiment: Gelatin zymography of brain after embolic focal ischemia, MMP-2; type: in vivo, rat; settings: tPA 10 mg/kg, 6 hrs post-ischemia; 12 hrs after embolic focal ischemia; vs saline
Description: (§2) The use of BB-94 provided pharmacologic evidence that MMPs were involved in tPA-induced hemorrhage. The role of tPA in further increasing MMP levels was investigated (Sumii, T, E. H. Lo, Stroke 33:831-836, 2002; Aoki, T., et al., Stroke 33:2711-2717, 2002). At 12 hrs after embolic focal ischemia in rats, gelatin zymograms show an upregulation in MMP-9, as expected (FIG. 2A). […] This is an important point since MMP-9 is already produced in ischemic brain. The relevance of tPA-induced MMP-9 is dependent on how much more is released.

ERK = experiment: Western blot of phospho-ERK after tPA exposure in vitro; type: cell-based; settings: 40 μg/ml tPA; rat cultures
Description: (§3) The presence of MMP upregulation following activation of various signaling pathways after tPA binds to LRP, was investigated. In this investigation, MAP kinase was examined.

MMP-9 [4] = experiment: Gelatin zymography of brain after embolic focal ischemia, MMP-9; type: in vivo, rat; settings: tPA 10 mg/kg, 6 hrs post-ischemia; 12 hrs after embolic focal ischemia; vs saline
Description: as §2

MMP-9 [5] = experiment: Zymography of conditioned media, neuron/astrocyte co-cultures, MMP-9; type: cell-based, rat; settings: 24 hr exposure to tPA
Procedure: as §1

MMP-9 [6] = experiment: Zymography of conditioned media, brain microvessel endothelial cells, MMP-9; type: cell-based, human
Procedure: as §1

[7] = tested on: microvessel endothelial cells from human brain; experiment: Cytotoxicity assay of LDH release, brain endothelial cells; type: cell-based; settings: different doses of tPA
Procedure: as §1

MMP-9 [8] = experiment: tPA-induced MMP-9 production in wild-type murine embryonic fibroblasts (MEF-1); type: cell-based, mouse; settings: wild-type MEF-1 cells
MMP-2 [9] = experiment: Zymography of conditioned media, brain microvessel endothelial cells, MMP-2; type: cell-based; settings: human brain endothelial cells
Procedure: as §1

p38 MAP kinase = experiment: Western blot of phospho-p38 after tPA exposure in vitro; type: cell-based; settings: 40 μg/ml tPA; rat cultures
Description: as §3

MMP-9 [10] = experiment: tPA-induced MMP-9 production in LRP knockout murine embryonic fibroblasts (PEA-13); type: cell-based, mouse; settings: LRP knockout PEA-13 cells
MMP-9 [11] = settings: rats pre-treated intravenously with U0126 vs saline, 2 hr focal ischemia
Description: In this investigation, rats were pre-treated with either saline or U0126 intravenously, then subjected to 2 hr focal ischemia. U0126 inhibits MEK, which is the upstream kinase that activates ERK.

| Compound | upregulation of MMP-9 in brain (gelatin zymograms) (MMP-9 [1]) | cytotoxicity (LDH release) [2] | MMP-2 levels in brain (gelatin zymograms) (MMP-2 [3]) | activation of ERK pathway (phospho-ERK) (ERK) | MMP-9 levels in brain (gelatin zymograms) (MMP-9 [4]) | secretion of MMP-9 (MMP-9 [5]) | secretion of MMP-9 (MMP-9 [6]; cerebral microvessel endothelial cells, 24 hr exposure to tPA) | dose- and time-dependence of tPA-induced MMP-9 release (MMP-9 [6]; human brain endothelial cells) | cytotoxicity (LDH release) [7] | MMP-9 production (MMP-9 [8]) | dose- and time-dependence of tPA-induced MMP-2 release (MMP-2 [9]) | activation of p38 MAP kinase pathway (phospho-p38) (p38 MAP kinase) | MMP-9 response (MMP-9 [10]) | ischemic upregulation of MMP-9 (MMP-9 [11]) |
| --- | --- | --- | --- | --- | --- | --- | --- | --- | --- | --- | --- | --- | --- | --- |
| tPA: tissue plasminogen activator (alteplase), thrombolytic agent | clearly amplified the upregulation of MMP-9; also recorded: MMP-9 is amplified | not toxic | slightly increased but the difference did not reach statistical significance | activation of ERK; also recorded: rapidly activated | more than doubled the production of MMP-9; also recorded: doubling of MMP-9 | clearly induced secretion of MMP-9; also recorded: increased MMP-9 secretion | clearly induced secretion of MMP-9; also recorded: increased MMP-9 secretion | clear dose- and time-dependence | not toxic | induced MMP-9 production | clear dose- and time-dependence | activation; also recorded: rapidly activated | no tPA-induced MMP-9 response; also recorded: no significant response | – |
| N#CC(=C(/N)Sc1ccccc1N)/C(C#N)=C(\N)Sc1ccccc1N [U0126] | – | – | – | – | – | – | – | – | – | – | – | – | – | can attenuate ischemic upregulation of MMP-9; also recorded: attenuated MMP-9 levels |
